Measurements: ChEMBL document CHEMBL4507299, “Data for DCP probe PF-04554878” (2021)

Tests used:
[1] = biological target: Beta-1 adrenergic receptor (Homo sapiens) (UniProt P08588); conditions: Compound concentration 10.0 uM
[2] = biological target: Cyclin-dependent kinase 14 (Homo sapiens) (UniProt O94921)
[3] = biological target: High affinity nerve growth factor receptor (Homo sapiens) (UniProt P04629)
[4] = biological target: Casein kinase I isoform epsilon (Homo sapiens) (UniProt P49674)
[5] = tested on: Phosphatidylinositol 4,5-bisphosphate 3-kinase catalytic subunit alpha isoform (Homo sapiens), P42336 [H1047L]
[6] = biological target: Ephrin type-B receptor 3 (Homo sapiens) (UniProt P54753)
[7] = biological target: Tyrosine-protein kinase Tec (Homo sapiens) (UniProt P42680)
[8] = biological target: Maternal embryonic leucine zipper kinase (Homo sapiens) (UniProt Q14680)
[9] = biological target: Ankyrin repeat and protein kinase domain-containing protein 1 (Homo sapiens) (UniProt Q8NFD2)
[10] = biological target: Interleukin-1 receptor-associated kinase 1 (Homo sapiens) (UniProt P51617)
[11] = biological target: Phosphatidylinositol 5-phosphate 4-kinase type-2 gamma (Homo sapiens) (UniProt Q8TBX8)
[12] = biological target: Sodium-dependent noradrenaline transporter (Homo sapiens) (UniProt P23975); conditions: Compound concentration 10.0 uM
[13] = biological target: Muscarinic acetylcholine receptor M3 (Homo sapiens) (UniProt P20309); conditions: Compound concentration 10.0 uM
[14] = biological target: Ribosomal protein S6 kinase alpha-5 (Homo sapiens) (UniProt O75582)
[15] = biological target: 5-hydroxytryptamine receptor 7 (Homo sapiens) (UniProt P34969); conditions: Compound concentration 10.0 uM
[16] = tested on: Epidermal growth factor receptor (Homo sapiens), P00533 [G719C]
[17] = biological target: BDNF/NT-3 growth factors receptor (Homo sapiens) (UniProt Q16620)
[18] = biological target: Microtubule-associated serine/threonine-protein kinase 1 (Homo sapiens) (UniProt Q9Y2H9)
[19] = biological target: MAP kinase-activated protein kinase 5 (Homo sapiens) (UniProt Q8IW41)
[20] = biological target: Tyrosine-protein kinase ITK/TSK (Homo sapiens) (UniProt Q08881)
[21] = biological target: Citron Rho-interacting kinase (Homo sapiens) (UniProt O14578)
[22] = biological target: Phosphatidylinositol 4,5-bisphosphate 3-kinase catalytic subunit delta isoform (Homo sapiens) (UniProt O00329)
[23] = tested on: Receptor-type tyrosine-protein kinase FLT3 (Homo sapiens), P36888 [UNDEFINED MUTATION]
[24] = biological target: 5-hydroxytryptamine receptor 3A (Homo sapiens) (UniProt P46098); conditions: Compound concentration 10.0 uM
[25] = biological target: D(4) dopamine receptor (Homo sapiens) (UniProt P21917); conditions: Compound concentration 10.0 uM
[26] = tested on: Epidermal growth factor receptor (Homo sapiens), P00533 [G719S]
[27] = biological target: Tyrosine-protein kinase FRK (Homo sapiens) (UniProt P42685)
[28] = biological target: Cyclin-dependent kinase 16 (Homo sapiens) (UniProt Q00536)
[29] = tested on: Hepatocyte growth factor receptor (Homo sapiens), P08581 [M1250T]
[30] = biological target: Delta-type opioid receptor (Homo sapiens) (UniProt P41143); conditions: Compound concentration 10.0 uM
[31] = biological target: Protein-tyrosine kinase 6 (Homo sapiens) (UniProt Q13882)
[32] = biological target: Macrophage colony-stimulating factor 1 receptor (Homo sapiens) (UniProt P07333)
[33] = biological target: Serine/threonine-protein kinase 17A (Homo sapiens) (UniProt Q9UEE5)
[34] = biological target: LIM domain kinase 2 (Homo sapiens) (UniProt P53671)
[35] = biological target: Rho-associated protein kinase 1 (Homo sapiens) (UniProt Q13464)
[36] = biological target: Mitogen-activated protein kinase kinase kinase 4 (Homo sapiens) (UniProt Q9Y6R4)
[37] = biological target: MAP kinase-interacting serine/threonine-protein kinase 1 (Homo sapiens) (UniProt Q9BUB5)
[38] = biological target: Serine/threonine-protein kinase PAK 3 (Homo sapiens) (UniProt O75914)
[39] = biological target: Tyrosine-protein kinase Fes/Fps (Homo sapiens) (UniProt P07332)
[40] = biological target: Serine/threonine-protein kinase Nek4 (Homo sapiens) (UniProt P51957)
[41] = biological target: Mitogen-activated protein kinase kinase kinase 3 (Homo sapiens) (UniProt Q99759)
[42] = biological target: Serine/threonine-protein kinase 32A (Homo sapiens) (UniProt Q8WU08)
[43] = tested on: Epidermal growth factor receptor (Homo sapiens), P00533 [UNDEFINED MUTATION]
[44] = biological target: Ribosomal protein S6 kinase alpha-6 (Homo sapiens) (UniProt Q9UK32)
[45] = biological target: Muscarinic acetylcholine receptor M1 (Homo sapiens) (UniProt P11229); conditions: Compound concentration 10.0 uM
[46] = Compound concentration 100.0 nM
[47] = Compound concentration 1000.0 nM

Microtubule-associated serine/threonine-protein kinase 1 (Homo sapiens), sequence (Q9Y2H9 whole entry, looked up): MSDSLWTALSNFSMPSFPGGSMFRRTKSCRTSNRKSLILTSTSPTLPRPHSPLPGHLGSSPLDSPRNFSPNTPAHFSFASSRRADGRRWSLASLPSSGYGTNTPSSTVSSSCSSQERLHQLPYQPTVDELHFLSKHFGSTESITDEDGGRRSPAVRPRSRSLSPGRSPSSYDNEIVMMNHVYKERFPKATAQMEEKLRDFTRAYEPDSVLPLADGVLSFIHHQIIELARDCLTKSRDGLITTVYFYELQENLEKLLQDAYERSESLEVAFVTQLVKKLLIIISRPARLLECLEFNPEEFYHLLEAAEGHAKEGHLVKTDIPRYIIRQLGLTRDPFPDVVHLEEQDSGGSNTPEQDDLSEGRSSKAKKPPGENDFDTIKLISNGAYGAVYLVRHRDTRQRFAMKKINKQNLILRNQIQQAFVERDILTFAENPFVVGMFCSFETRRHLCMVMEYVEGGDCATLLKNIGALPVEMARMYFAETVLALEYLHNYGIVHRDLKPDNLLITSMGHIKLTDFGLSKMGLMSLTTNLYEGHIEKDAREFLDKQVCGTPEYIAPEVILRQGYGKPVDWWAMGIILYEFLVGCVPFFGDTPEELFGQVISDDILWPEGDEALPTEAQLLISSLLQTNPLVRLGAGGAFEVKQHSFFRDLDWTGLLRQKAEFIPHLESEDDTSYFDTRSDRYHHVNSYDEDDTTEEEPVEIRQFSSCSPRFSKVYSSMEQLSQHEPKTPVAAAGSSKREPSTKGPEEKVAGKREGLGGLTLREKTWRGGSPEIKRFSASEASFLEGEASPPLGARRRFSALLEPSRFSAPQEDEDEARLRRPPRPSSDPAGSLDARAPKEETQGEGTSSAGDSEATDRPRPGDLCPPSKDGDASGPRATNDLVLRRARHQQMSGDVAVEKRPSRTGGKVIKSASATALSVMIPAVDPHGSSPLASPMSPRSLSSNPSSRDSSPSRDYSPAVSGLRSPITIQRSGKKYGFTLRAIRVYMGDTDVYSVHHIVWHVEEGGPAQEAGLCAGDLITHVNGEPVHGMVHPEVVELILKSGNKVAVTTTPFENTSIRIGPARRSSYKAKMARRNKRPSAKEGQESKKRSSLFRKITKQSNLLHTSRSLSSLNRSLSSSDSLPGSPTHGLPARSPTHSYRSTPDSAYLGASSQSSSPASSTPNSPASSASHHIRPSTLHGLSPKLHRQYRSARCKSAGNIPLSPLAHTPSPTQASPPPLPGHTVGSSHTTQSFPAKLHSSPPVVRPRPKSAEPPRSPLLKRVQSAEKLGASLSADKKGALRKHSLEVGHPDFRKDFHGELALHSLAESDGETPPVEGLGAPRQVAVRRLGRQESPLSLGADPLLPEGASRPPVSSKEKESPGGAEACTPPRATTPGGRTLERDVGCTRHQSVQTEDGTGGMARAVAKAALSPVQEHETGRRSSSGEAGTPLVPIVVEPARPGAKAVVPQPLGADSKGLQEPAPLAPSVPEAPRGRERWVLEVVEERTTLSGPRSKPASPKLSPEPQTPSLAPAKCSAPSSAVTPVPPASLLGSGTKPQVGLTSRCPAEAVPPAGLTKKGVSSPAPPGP
D(4) dopamine receptor (Homo sapiens), sequence (P21917 whole entry): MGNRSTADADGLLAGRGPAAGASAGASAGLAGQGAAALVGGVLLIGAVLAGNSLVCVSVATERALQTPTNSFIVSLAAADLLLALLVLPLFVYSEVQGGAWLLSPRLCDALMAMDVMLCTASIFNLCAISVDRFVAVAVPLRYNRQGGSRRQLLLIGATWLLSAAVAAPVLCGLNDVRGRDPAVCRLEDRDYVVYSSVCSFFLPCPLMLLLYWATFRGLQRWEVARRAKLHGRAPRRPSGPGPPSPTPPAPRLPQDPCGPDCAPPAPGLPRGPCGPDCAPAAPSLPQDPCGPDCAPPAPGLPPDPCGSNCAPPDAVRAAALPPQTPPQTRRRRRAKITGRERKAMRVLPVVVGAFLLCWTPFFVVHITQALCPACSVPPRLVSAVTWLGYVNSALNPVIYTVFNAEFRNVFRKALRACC
Receptor-type tyrosine-protein kinase FLT3 (Homo sapiens), P36888 [UNDEFINED MUTATION], sequence (P36888 whole entry, looked up, change not shown): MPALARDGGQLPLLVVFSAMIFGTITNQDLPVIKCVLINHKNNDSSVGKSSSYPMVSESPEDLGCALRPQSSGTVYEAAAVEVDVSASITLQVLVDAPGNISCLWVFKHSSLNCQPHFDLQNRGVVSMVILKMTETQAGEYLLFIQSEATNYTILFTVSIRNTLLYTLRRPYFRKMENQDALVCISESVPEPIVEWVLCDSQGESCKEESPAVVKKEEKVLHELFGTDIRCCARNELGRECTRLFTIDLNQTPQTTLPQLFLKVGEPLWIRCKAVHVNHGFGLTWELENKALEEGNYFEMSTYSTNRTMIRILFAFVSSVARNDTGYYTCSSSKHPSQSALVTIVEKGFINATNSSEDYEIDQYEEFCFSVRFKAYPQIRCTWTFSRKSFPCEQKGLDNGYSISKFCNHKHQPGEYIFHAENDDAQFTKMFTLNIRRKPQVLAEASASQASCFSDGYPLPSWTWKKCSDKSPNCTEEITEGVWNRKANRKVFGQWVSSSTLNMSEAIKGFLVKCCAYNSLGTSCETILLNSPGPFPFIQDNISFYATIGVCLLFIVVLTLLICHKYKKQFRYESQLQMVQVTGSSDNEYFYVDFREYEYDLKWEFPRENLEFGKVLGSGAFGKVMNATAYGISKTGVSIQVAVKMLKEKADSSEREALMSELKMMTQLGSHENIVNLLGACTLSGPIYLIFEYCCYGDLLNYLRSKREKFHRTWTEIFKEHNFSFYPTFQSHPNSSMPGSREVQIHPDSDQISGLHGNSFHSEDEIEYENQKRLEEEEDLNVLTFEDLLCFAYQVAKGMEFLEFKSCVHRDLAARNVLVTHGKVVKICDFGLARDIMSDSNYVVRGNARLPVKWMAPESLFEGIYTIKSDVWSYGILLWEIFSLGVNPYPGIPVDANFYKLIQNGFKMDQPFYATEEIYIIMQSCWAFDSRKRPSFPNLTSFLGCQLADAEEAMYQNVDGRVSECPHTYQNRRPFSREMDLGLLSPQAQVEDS
MAP kinase-interacting serine/threonine-protein kinase 1 (Homo sapiens), sequence (Q9BUB5 whole entry, looked up): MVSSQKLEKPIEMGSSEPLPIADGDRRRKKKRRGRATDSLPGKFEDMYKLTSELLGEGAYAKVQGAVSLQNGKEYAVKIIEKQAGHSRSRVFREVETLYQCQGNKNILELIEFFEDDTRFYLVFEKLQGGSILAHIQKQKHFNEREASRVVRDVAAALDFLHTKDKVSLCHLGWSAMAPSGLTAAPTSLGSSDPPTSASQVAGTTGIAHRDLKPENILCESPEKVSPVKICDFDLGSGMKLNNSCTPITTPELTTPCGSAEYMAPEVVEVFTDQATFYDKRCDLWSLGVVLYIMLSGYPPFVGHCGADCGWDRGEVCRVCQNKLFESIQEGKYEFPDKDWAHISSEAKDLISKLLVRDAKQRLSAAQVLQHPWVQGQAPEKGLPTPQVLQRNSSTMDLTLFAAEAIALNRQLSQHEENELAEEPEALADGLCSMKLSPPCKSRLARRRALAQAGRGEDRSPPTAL
Ephrin type-B receptor 3 (Homo sapiens), sequence (P54753 whole entry): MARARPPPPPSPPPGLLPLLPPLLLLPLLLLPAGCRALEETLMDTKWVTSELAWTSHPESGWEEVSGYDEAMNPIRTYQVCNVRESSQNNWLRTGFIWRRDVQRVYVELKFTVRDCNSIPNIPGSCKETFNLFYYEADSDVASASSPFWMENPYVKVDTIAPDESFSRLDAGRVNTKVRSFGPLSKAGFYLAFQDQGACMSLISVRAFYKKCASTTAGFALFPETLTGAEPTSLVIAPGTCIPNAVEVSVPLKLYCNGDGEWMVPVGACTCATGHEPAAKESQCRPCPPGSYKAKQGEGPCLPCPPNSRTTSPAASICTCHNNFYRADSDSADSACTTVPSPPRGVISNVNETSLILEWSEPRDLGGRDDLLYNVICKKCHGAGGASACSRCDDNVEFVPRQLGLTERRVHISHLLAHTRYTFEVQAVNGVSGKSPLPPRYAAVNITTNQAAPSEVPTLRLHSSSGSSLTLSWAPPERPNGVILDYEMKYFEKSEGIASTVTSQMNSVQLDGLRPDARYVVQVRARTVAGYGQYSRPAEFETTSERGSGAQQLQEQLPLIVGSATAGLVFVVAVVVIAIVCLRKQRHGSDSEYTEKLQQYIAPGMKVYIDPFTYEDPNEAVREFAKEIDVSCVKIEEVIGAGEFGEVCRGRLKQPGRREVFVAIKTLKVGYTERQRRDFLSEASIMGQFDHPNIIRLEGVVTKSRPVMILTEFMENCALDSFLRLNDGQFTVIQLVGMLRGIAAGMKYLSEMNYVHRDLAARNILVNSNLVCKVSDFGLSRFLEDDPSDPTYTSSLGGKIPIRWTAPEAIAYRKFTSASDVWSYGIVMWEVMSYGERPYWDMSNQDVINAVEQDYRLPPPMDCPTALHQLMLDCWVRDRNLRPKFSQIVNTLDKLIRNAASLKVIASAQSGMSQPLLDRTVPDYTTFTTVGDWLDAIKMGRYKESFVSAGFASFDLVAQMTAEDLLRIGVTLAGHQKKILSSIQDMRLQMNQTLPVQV
Casein kinase I isoform epsilon (Homo sapiens), sequence (P49674 whole entry, looked up, canonical isoform): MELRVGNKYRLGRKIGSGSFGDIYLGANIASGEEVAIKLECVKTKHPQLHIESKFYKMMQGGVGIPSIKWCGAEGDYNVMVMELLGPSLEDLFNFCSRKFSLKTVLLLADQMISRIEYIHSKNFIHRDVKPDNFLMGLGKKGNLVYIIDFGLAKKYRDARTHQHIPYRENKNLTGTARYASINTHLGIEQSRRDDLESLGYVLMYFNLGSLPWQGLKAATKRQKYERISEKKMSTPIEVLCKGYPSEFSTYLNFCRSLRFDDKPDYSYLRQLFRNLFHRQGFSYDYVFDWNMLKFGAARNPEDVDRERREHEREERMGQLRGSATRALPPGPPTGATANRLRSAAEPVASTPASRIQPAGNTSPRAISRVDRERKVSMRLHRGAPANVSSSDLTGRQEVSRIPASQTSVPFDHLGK

CNC(=O)c1ccc(Nc2ncc(C(F)(F)F)c(NCc3nccnc3N(C)S(C)(=O)=O)n2)cc1 [DEFACTINIB]
inhibition [1]: -0.83% | residual activity [2, 46]: 88% | residual activity [3, 46]: 13% | residual activity [4, 46]: 100% | residual activity [5, 46]: 32% | residual activity [6, 46]: 87% | residual activity [7, 46]: 100% | residual activity [8, 46]: 23% | residual activity [9, 46]: 88% | residual activity [10, 46]: 77% | residual activity [11, 46]: 40% | inhibition [12]: 7.81% | inhibition [13]: 23.8% | residual activity [14, 46]: 80% | inhibition [15]: 5.31% | residual activity [16, 46]: 94% | residual activity [17, 46]: 21% | residual activity [18, 46]: 100% | residual activity [19, 46]: 76% | residual activity [20, 46]: 80% | residual activity [21, 46]: 68% | residual activity [22, 46]: 90% | residual activity [23, 46]: 14% | inhibition [24]: 6.5% | inhibition [25]: 7.8% | residual activity [26, 46]: 92% | residual activity [27, 46]: 100% | residual activity [28, 46]: 99% | residual activity [29, 46]: 63% | inhibition [30]: -0.28% | residual activity [31, 46]: 100% | residual activity [32, 46]: 76% | residual activity [33, 46]: 19% | residual activity [34, 46]: 87% | residual activity [35, 46]: 100% | residual activity [36, 46]: 100% | residual activity [37, 46]: 83% | residual activity [38, 46]: 100% | residual activity [39, 46]: 82% | residual activity [40, 46]: 76% | residual activity [41, 46]: 81% | residual activity [42, 46]: 71% | residual activity [43, 46]: 91% | residual activity [44, 46]: 70% | inhibition [45]: 19.3%

CN(c1ccnc(CNc2nc(Nc3ccc4c(c3)CC(=O)N4)ncc2C(F)(F)F)n1)S(C)(=O)=O [PF-00911705]
inhibition [1]: 16.4% | residual activity [2, 47]: 86% | residual activity [3, 47]: 10% | residual activity [4, 47]: 100% | residual activity [5, 47]: 92% | residual activity [6, 47]: 95% | residual activity [7, 47]: 100% | residual activity [8, 47]: 40% | residual activity [9, 47]: 84% | residual activity [10, 47]: 13% | residual activity [11, 47]: 42% | inhibition [12]: 3.15% | inhibition [13]: -4.64% | residual activity [14, 47]: 78% | inhibition [15]: -4.55% | residual activity [16, 47]: 86% | residual activity [17, 47]: 21% | residual activity [18, 47]: 69% | residual activity [19, 47]: 94% | residual activity [20, 47]: 93% | residual activity [21, 47]: 99% | residual activity [22, 47]: 77% | residual activity [23, 47]: 0.7% | inhibition [24]: 1.24% | inhibition [25]: 2.34% | residual activity [26, 47]: 89% | residual activity [27, 47]: 93% | residual activity [28, 47]: 82% | residual activity [29, 47]: 6.8% | inhibition [30]: -6.88% | residual activity [31, 47]: 100% | residual activity [32, 47]: 100% | residual activity [33, 47]: 11% | residual activity [34, 47]: 94% | residual activity [35, 47]: 49% | residual activity [36, 47]: 91% | residual activity [37, 47]: 45% | residual activity [38, 47]: 88% | residual activity [39, 47]: 74% | residual activity [40, 47]: 84% | residual activity [41, 47]: 44% | residual activity [42, 47]: 72% | residual activity [43, 47]: 44% | residual activity [44, 47]: 4.6% | inhibition [45]: -6.58%
